Consider ten molecules from ChEMBL document CHEMBL3813639, “The Halicylindramides, Farnesoid X Receptor Antagonizing Depsipeptides from a Petrosia sp. Marine Sponge Collected in Korea” (J Nat Prod, 2016).

Activity calls are given as the source filed them. No cut-off for these calls is given here.

In assay [1] the test system is HepG2. Briefly: cells. To be noted: Homo sapiens, HepG2, 24 h.
Description: Cytotoxicity against human HepG2 cells after 24 hrs by MTT assay
Assay [2] addresses T1, Bile acid receptor (Homo sapiens, UniProt Q96RI1).
T1 sequence (Q96RI1 whole entry): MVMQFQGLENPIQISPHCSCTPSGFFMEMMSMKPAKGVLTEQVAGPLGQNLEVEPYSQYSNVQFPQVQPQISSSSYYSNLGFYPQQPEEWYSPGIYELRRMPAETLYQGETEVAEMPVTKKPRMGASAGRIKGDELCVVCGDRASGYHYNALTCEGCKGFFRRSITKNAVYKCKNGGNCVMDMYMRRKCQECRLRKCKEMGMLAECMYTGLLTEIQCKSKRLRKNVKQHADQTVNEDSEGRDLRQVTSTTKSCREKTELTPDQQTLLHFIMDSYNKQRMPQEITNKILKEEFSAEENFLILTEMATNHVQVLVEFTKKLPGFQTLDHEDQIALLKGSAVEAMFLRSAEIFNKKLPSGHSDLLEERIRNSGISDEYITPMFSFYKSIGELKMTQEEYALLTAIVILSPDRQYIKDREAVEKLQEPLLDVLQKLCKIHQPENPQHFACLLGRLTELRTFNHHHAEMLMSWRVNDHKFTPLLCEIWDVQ
Briefly: Antagonist activity at human FXR expressed in CV-1 cells assessed as inhibition of CDCA-induced receptor transactivation after 24 hrs by luciferase reporter gene assay. The format is cell-based. On the technique in general: In a reporter assay the amount or activity of a reporter protein is the signal.

The subject of assay [3] is Mus musculus. Briefly: Antiinflammatory activity in Swiss mouse assessed as inhibition of carrageenan-induced paw edema at 0.3 mg/kg, ip by hydroplethismometer. In kind it is functional. For orientation: Carrageenan injected into the paw causes an acute inflammation.
Assay [4] deals with Human immunodeficiency virus 1. Briefly: Antiviral activity against HIV1 3B infected in human PBMC cells assessed as reduction in reverse transcriptase activity after 5 days by XTT assay. The format is functional, organism-based. The following applies: Human immunodeficiency virus 1, 3B, 120 h. (In general: Tetrazolium dyes change colour on reduction, which living cells bring about.)

The test system of assay [5] is MCF7. As to the kind of experiment: Antiproliferative activity against human MCF7 cells after 20 hrs by microculture tetrazolium assay. The format is functional. To be noted: MCF7, 20 h, read-out: ED50 (the source's name).
The test system of assay [6] is Human immunodeficiency virus 1. Briefly: Antiviral activity against HIV1 RF assessed as inhibition of viral infection in human T-lymphoblastoid cells. In kind it is functional, organism-based. To be noted: Human immunodeficiency virus 1, RF.
In assay [7] the target is T2, Bile acid receptor (Homo sapiens) (UniProt Q96RI1).
T2 sequence (whole entry): T1 sequence (Q96RI1 whole entry)
As to the kind of experiment: Antagonist activity at human FXR expressed in CV-1 cells assessed as inhibition of CDCA-induced receptor transactivation upto 100 uM after 24 hrs by luciferase reporter gene assay. The format is cell-based.

Usually IC50 stands for the midpoint of a concentration-inhibition curve. Turning to `CC(C)[C@@H](NC(=O)[C@@H]1CCCN1C(=O)[C@H](Cc1ccc(Br)cc1)NC(=O)[C@@H](C)NC=O)C(=O)N[C@H](C(=O)N[C@H](Cc1c[nH]c2ccccc12)C(=O)N[C@@H](CCCNC(=N)N)C(=O)N[C@H](CS(=O)(=O)O)C(=O)N[C@@H]1C(=O)N(C)[C@@H](CCC(N)=O)C(=O)N[C@H](Cc2ccccc2)C(=O)N[C@@H]([C@@H](C)O)C(=O)N[C@@H](CC(N)=O)C(=O)N(C)CC(=O)O[C@@H]1C)C(C)(C)C`, the IC50 was 100 µM in assay [1] and 5 µM in assay [2].
Turning to `CC(C)[C@H](NC(=O)[C@H](NC(=O)[C@@H]1CCCN1C(=O)[C@H](Cc1ccc(Br)cc1)NC(=O)[C@@H](C)NC=O)C(C)C)C(=O)N[C@H](Cc1c[nH]c2ccccc12)C(=O)N[C@@H](CCCNC(=N)N)C(=O)N[C@H](CS(=O)(=O)O)C(=O)N[C@@H]1C(=O)N(C)[C@@H](CCC(N)=O)C(=O)N[C@H](Cc2ccccc2)C(=O)N[C@@H]([C@@H](C)O)C(=O)N[C@@H](CC(N)=O)C(=O)N(C)CC(=O)O[C@@H]1C`, the values for the IC50 in assay [1] and in assay [2] were 20 µM and 0.5 µM, respectively.
As usually defined, the inhibition in vivo is the relative decrease from the control value, in per cent. As for `CCC[C@@H](CC[C@@H](C)[C@@H]1OC(=O)[C@H](C)NC(=O)[C@H]([C@@H](C)CCO)N(C)C(=O)[C@]2(C)CSC(=N2)[C@H](C)NC(=O)C1(C)C)OC`, in assay [3], the inhibition in vivo at 0.3 mg/kg is 60%.
On to `CC[C@@H](C)C[C@@H](C)[C@@H](O)[C@@H](C)C(=O)N[C@H](CCCN)C(=O)N[C@@H](CCC(=O)O)[C@@H](O)[C@@H](O)C(=O)N[C@H](C(=O)N[C@H]1C(=O)N[C@H](CO)C(=O)N[C@H](CCCN)C(=O)N[C@@H](CC(C)C)C(=O)N(C)[C@@H](CCC(N)=O)C(=O)N[C@@H]([C@@H](C)OC)C(=O)N[C@H](CC(=O)O)C(=O)N2CCCC[C@H]2C(=O)O[C@@H]1[C@H](C)C(C)C)[C@@H](C)[C@@H](C)C(N)=O`, for which, in assay [4], the IC50 was 0.075 µM.
As to `CN[C@H](C(=O)N[C@H](C(=O)N(C)[C@H](/C=C(\C)C(=O)O)C(C)C)C(C)(C)C)C(C)(C)c1cn(C)c2ccccc12` [HEMIASTERLIN], the EC50 in assay [5] came out at 0.0005 µM.
Take `CCC(C)/C=C(C)/C=C\C(O)C(C)(O)C(=O)NCC(=O)N[C@@H](C(=O)N[C@H](C(=O)N[C@H](C(=O)N[C@H]1C(=O)N[C@H](COC)C(=O)NCC(=O)N[C@@H](C)CN(C)[C@H]([C@@H](C)O)CNC(C(OC)c2ccc(O)cc2)C(=O)N2CCCC[C@H]2C(=O)O[C@@H]1C(C)C)[C@@H](C)[C@@H](C)C(N)=O)[C@H](C)N)[C@@H](C)O` (stereo not given in full): the EC50 in assay [6] is 0.0026 µM.
Take `CC(C)[C@@H](NC(=O)[C@H]1CCCN1C(=O)[C@H](Cc1ccc(Br)cc1)NC(=O)[C@@H](C)NC=O)C(=O)N[C@H](C(=O)N[C@H](C[C@]1(O)C(=O)Nc2ccccc21)C(=O)N[C@@H](CCCNC(=N)N)C(=O)N[C@H](CS(=O)(=O)O)C(=O)N[C@H]1C(=O)N(C)[C@H](CCC(N)=O)C(=O)N[C@@H](Cc2ccccc2)C(=O)N[C@H]([C@H](C)O)C(=O)N[C@H](CC(N)=O)C(=O)N(C)CC(=O)O[C@@H]1C)C(C)(C)C`: the IC50 in assay [1] was determined as 100 µM. Moreover, the inhibition entry in assay [7] was “inactive”.
In assay [1], `COc1cccc2c1C(=O)c1c(O)c3c(c(O)c1C2=O)C[C@@](O)(C(=O)CO)C[C@@H]3O[C@H]1C[C@H](N)[C@H](O)[C@H](C)O1` [DOXORUBICIN] yielded an IC50 of 2.1 µM.
Molecule `CC(C)[C@@H](NC(=O)[C@H]1CCCN1C(=O)[C@H](Cc1ccc(Br)cc1)NC(=O)[C@@H](C)NC=O)C(=O)N[C@H](C(=O)N[C@H](C[C@@]1(O)C(=O)Nc2ccccc21)C(=O)N[C@@H](CCCNC(=N)N)C(=O)N[C@H](CS(=O)(=O)O)C(=O)N[C@H]1C(=O)N(C)[C@H](CCC(N)=O)C(=O)N[C@@H](Cc2ccccc2)C(=O)N[C@H]([C@H](C)O)C(=O)N[C@H](CC(N)=O)C(=O)N(C)CC(=O)O[C@@H]1C)C(C)(C)C` displayed an IC50 in assay [1] of 100 µM. For the same molecule, in assay [7], the inhibition result was “inactive”.
As for `CC(C)[C@@H](NC(=O)[C@H]1CCCN1C(=O)[C@H](Cc1ccccc1)NC(=O)[C@@H](C)NC=O)C(=O)N[C@H](C(=O)N[C@H](Cc1c[nH]c2ccccc12)C(=O)N[C@@H](CCCNC(=N)N)C(=O)N[C@H](CS(=O)(=O)O)C(=O)N[C@H]1C(=O)N(C)[C@H](CCC(N)=O)C(=O)N[C@@H](Cc2ccccc2)C(=O)N[C@H]([C@H](C)O)C(=O)N[C@H](CC(N)=O)C(=O)N(C)CC(=O)O[C@@H]1C)C(C)(C)C`, the figures for the IC50 in assay [1] and in assay [2] were 100 µM and 6 µM, respectively.
